Data as given in PubChem BioAssay AID1963852 (Molecular Pharmacology Branch, DTP, NCI, 2024).

Tested on: 282377-053-R-J1-PDC complex spheroid viability
Experiment: Anticancer human tumor 282377-053-R-J1-PDC patient-derived colon adenocarcinoma cell line growth inhibition [POLQ]
Settings: for IC50: curve of first compound; for viability, T/C: stronger effect = lower value
Summary of the method: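 PDC + HUVEC + MSC complex spheroids; POLQ inhibitors ± partner drugs; top conc. at/near clinical Cmax, else 10 microM (SN-38 1 microM), half-log dilutions; 37 degrees C, 5% CO2.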

[1] = second compound 0.0316 µM, first compound 0.0316 µM
[2] = second compound 0.0316 µM, first compound 0.1 µM
[3] = second compound 0.0316 µM, first compound 0.316 µM
[4] = second compound 0.0316 µM, first compound 1 µM
[5] = second compound 0.0316 µM, first compound 3.16 µM
[6] = second compound 0.0316 µM, first compound 10 µM
[7] = second compound 0.1 µM, first compound 0.0316 µM
[8] = second compound 0.1 µM, first compound 0.1 µM
[9] = second compound 0.1 µM, first compound 0.316 µM
[10] = second compound 0.1 µM, first compound 1 µM
[11] = second compound 0.1 µM, first compound 3.16 µM
[12] = second compound 0.1 µM, first compound 10 µM
[13] = second compound 0.316 µM, first compound 0.0316 µM
[14] = second compound 0.316 µM, first compound 0.1 µM
[15] = second compound 0.316 µM, first compound 0.316 µM
[16] = second compound 0.316 µM, first compound 1 µM
[17] = second compound 0.316 µM, first compound 3.16 µM
[18] = second compound 0.316 µM, first compound 10 µM
[19] = second compound 1 µM, first compound 0.0316 µM
[20] = second compound 1 µM, first compound 0.1 µM
[21] = second compound 1 µM, first compound 0.316 µM
[22] = second compound 1 µM, first compound 1 µM
[23] = second compound 1 µM, first compound 3.16 µM
[24] = second compound 1 µM, first compound 10 µM
[25] = second compound 3.16 µM, first compound 0.0316 µM
[26] = second compound 3.16 µM, first compound 0.1 µM
[27] = second compound 3.16 µM, first compound 0.316 µM
[28] = second compound 3.16 µM, first compound 1 µM
[29] = second compound 3.16 µM, first compound 3.16 µM
[30] = second compound 3.16 µM, first compound 10 µM
[31] = second compound 10 µM, first compound 0.0316 µM
[32] = second compound 10 µM, first compound 0.1 µM
[33] = second compound 10 µM, first compound 0.316 µM
[34] = second compound 10 µM, first compound 1 µM
[35] = second compound 10 µM, first compound 3.16 µM
[36] = second compound 10 µM, first compound 10 µM
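Note: spheroids exposed to compounds for seven days.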
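Throughout, for viability, T/C: 100% = DMSO vehicle control viability.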

CC(=O)O[C@H]1C(=O)[C@@]2(C)[C@H]([C@H](OC(=O)c3ccccc3)[C@]3(O)C[C@H](OC(=O)[C@H](O)[C@@H](NC(=O)c4ccccc4)c4ccccc4)C(C)=C1C3(C)C)[C@]1(OC(C)=O)CO[C@@H]1C[C@@H]2O + COC1C(OC(N)=O)C(O)C(Oc2ccc3c(O)c(NC(=O)c4ccc(O)c(CC=C(C)C)c4)c(=O)oc3c2C)OC1(C)C
IC50 (second compound 0.0316 µM): < 9.49 nM
IC50 (second compound 0.1 µM): 10.4 nM
IC50 (second compound 0.316 µM): 11.5 nM
IC50 (second compound 1 µM): 11.4 nM
IC50 (second compound 3.16 µM): 12.6 nM
IC50 (second compound 10 µM): 13.1 nM
viability, T/C (second compound 0.0316 µM, first compound 0.00949 µM): 39.3%
viability, T/C (second compound 0.0316 µM, first compound 0.03 µM): 18.9%
viability, T/C (second compound 0.0316 µM, first compound 0.0949 µM): 19.9%
viability, T/C (second compound 0.0316 µM, first compound 0.3 µM): 20.6%
viability, T/C (second compound 0.0316 µM, first compound 0.949 µM): 19.5%
viability, T/C (second compound 0.0316 µM, first compound 3 µM): 24.1%
viability, T/C (second compound 0.1 µM, first compound 0.00949 µM): 52.5%
viability, T/C (second compound 0.1 µM, first compound 0.03 µM): 21.9%
viability, T/C (second compound 0.1 µM, first compound 0.0949 µM): 20.9%
viability, T/C (second compound 0.1 µM, first compound 0.3 µM): 18.1%
viability, T/C (second compound 0.1 µM, first compound 0.949 µM): 22.1%
viability, T/C (second compound 0.1 µM, first compound 3 µM): 25.3%
viability, T/C (second compound 0.316 µM, first compound 0.00949 µM): 55.7%
viability, T/C (second compound 0.316 µM, first compound 0.03 µM): 20.8%
viability, T/C (second compound 0.316 µM, first compound 0.0949 µM): 19.9%
viability, T/C (second compound 0.316 µM, first compound 0.3 µM): 20.7%
viability, T/C (second compound 0.316 µM, first compound 0.949 µM): 22.9%
viability, T/C (second compound 0.316 µM, first compound 3 µM): 20.6%
viability, T/C (second compound 1 µM, first compound 0.00949 µM): 55.6%
viability, T/C (second compound 1 µM, first compound 0.03 µM): 20.8%
viability, T/C (second compound 1 µM, first compound 0.0949 µM): 16.8%
viability, T/C (second compound 1 µM, first compound 0.3 µM): 17.1%
viability, T/C (second compound 1 µM, first compound 0.949 µM): 22.2%
viability, T/C (second compound 1 µM, first compound 3 µM): 27.9%
viability, T/C (second compound 3.16 µM, first compound 0.00949 µM): 58.5%
viability, T/C (second compound 3.16 µM, first compound 0.03 µM): 23.8%
viability, T/C (second compound 3.16 µM, first compound 0.0949 µM): 15.8%
viability, T/C (second compound 3.16 µM, first compound 0.3 µM): 18.2%
viability, T/C (second compound 3.16 µM, first compound 0.949 µM): 23.1%
viability, T/C (second compound 3.16 µM, first compound 3 µM): 29.4%
viability, T/C (second compound 10 µM, first compound 0.00949 µM): 61.4%
viability, T/C (second compound 10 µM, first compound 0.03 µM): 20.9%
viability, T/C (second compound 10 µM, first compound 0.0949 µM): 16.9%
viability, T/C (second compound 10 µM, first compound 0.3 µM): 20.7%
viability, T/C (second compound 10 µM, first compound 0.949 µM): 24.5%
viability, T/C (second compound 10 µM, first compound 3 µM): 20.2%

COc1ccc([C@@H](O)c2cc(-c3ncnc4cc(N5CCOCC5)ccc34)c(F)cc2Cl)nn1 + COC1C(OC(N)=O)C(O)C(Oc2ccc3c(O)c(NC(=O)c4ccc(O)c(CC=C(C)C)c4)c(=O)oc3c2C)OC1(C)C
IC50 (second compound 0.0316 µM): > 10000 nM
IC50 (second compound 0.1 µM): > 10000 nM
IC50 (second compound 0.316 µM): > 10000 nM
IC50 (second compound 1 µM): > 10000 nM
IC50 (second compound 3.16 µM): > 10000 nM
IC50 (second compound 10 µM): > 10000 nM
viability, T/C [1]: 109%
viability, T/C [2]: 105%
viability, T/C [3]: 104%
viability, T/C [4]: 85.4%
viability, T/C [5]: 85.4%
viability, T/C [6]: 78.5%
viability, T/C [7]: 108%
viability, T/C [8]: 106%
viability, T/C [9]: 95.1%
viability, T/C [10]: 73.7%
viability, T/C [11]: 70.1%
viability, T/C [12]: 62.3%
viability, T/C [13]: 96.5%
viability, T/C [14]: 89.3%
viability, T/C [15]: 78.2%
viability, T/C [16]: 88.1%
viability, T/C [17]: 77.5%
viability, T/C [18]: 69.2%
viability, T/C [19]: 93.2%
viability, T/C [20]: 90.9%
viability, T/C [21]: 101%
viability, T/C [22]: 87.2%
viability, T/C [23]: 95%
viability, T/C [24]: 66.2%
viability, T/C [25]: 94%
viability, T/C [26]: 91.8%
viability, T/C [27]: 90.7%
viability, T/C [28]: 89.4%
viability, T/C [29]: 79.3%
viability, T/C [30]: 57.6%
viability, T/C [31]: 102%
viability, T/C [32]: 91.6%
viability, T/C [33]: 91.7%
viability, T/C [34]: 92.2%
viability, T/C [35]: 60.1%
viability, T/C [36]: 75.7%

COc1cc(C2c3cc4c(cc3C(OC3OC5COC(C)OC5C(O)C3O)C3COC(=O)C23)OCO4)cc(OC)c1O (stereo not given) + Cc1cccc(N(C)C(=O)C2C(O)CCN2c2nc(C)cc(C(F)(F)F)c2C#N)c1
IC50 (second compound 0.0316 µM): > 10000 nM
IC50 (second compound 0.1 µM): > 10000 nM
IC50 (second compound 0.316 µM): > 10000 nM
IC50 (second compound 1 µM): > 10000 nM
IC50 (second compound 3.16 µM): > 10000 nM
IC50 (second compound 10 µM): 7510 nM
viability, T/C [1]: 139%
viability, T/C [2]: 104%
viability, T/C [3]: 128%
viability, T/C [4]: 109%
viability, T/C [5]: 84.8%
viability, T/C [6]: 61.4%
viability, T/C [7]: 112%
viability, T/C [8]: 105%
viability, T/C [9]: 123%
viability, T/C [10]: 88.7%
viability, T/C [11]: 89.1%
viability, T/C [12]: 59.1%
viability, T/C [13]: 108%
viability, T/C [14]: 98.2%
viability, T/C [15]: 119%
viability, T/C [16]: 116%
viability, T/C [17]: 91%
viability, T/C [18]: 64.2%
viability, T/C [19]: 107%
viability, T/C [20]: 99%
viability, T/C [21]: 123%
viability, T/C [22]: 98.1%
viability, T/C [23]: 78.7%
viability, T/C [24]: 56.9%
viability, T/C [25]: 103%
viability, T/C [26]: 102%
viability, T/C [27]: 96.2%
viability, T/C [28]: 90.1%
viability, T/C [29]: 86.2%
viability, T/C [30]: 53.9%
viability, T/C [31]: 103%
viability, T/C [32]: 100%
viability, T/C [33]: 96.5%
viability, T/C [34]: 78.2%
viability, T/C [35]: 62.1%
viability, T/C [36]: 46%

CC1COCCN1c1cc(C2(O)CC3CCC(C2)O3)c2cnn(-c3ccn[nH]3)c2n1 (stereo not given) + COC1C(OC(N)=O)C(O)C(Oc2ccc3c(O)c(NC(=O)c4ccc(O)c(CC=C(C)C)c4)c(=O)oc3c2C)OC1(C)C
IC50 (second compound 0.0316 µM): 430 nM
IC50 (second compound 0.1 µM): 325 nM
IC50 (second compound 0.316 µM): 506 nM
IC50 (second compound 1 µM): 485 nM
IC50 (second compound 3.16 µM): 456 nM
IC50 (second compound 10 µM): 307 nM
viability, T/C [1]: 112%
viability, T/C [2]: 89.5%
viability, T/C [3]: 53.8%
viability, T/C [4]: 35.9%
viability, T/C [5]: 24.6%
viability, T/C [6]: 20.8%
viability, T/C [7]: 88.8%
viability, T/C [8]: 92.1%
viability, T/C [9]: 50.4%
viability, T/C [10]: 31.4%
viability, T/C [11]: 28.2%
viability, T/C [12]: 18.8%
viability, T/C [13]: 92.8%
viability, T/C [14]: 91.3%
viability, T/C [15]: 60.8%
viability, T/C [16]: 32.9%
viability, T/C [17]: 34.8%
viability, T/C [18]: 18.7%
viability, T/C [19]: 92.4%
viability, T/C [20]: 77.2%
viability, T/C [21]: 57.9%
viability, T/C [22]: 36.3%
viability, T/C [23]: 28.4%
viability, T/C [24]: 19.5%
viability, T/C [25]: 115%
viability, T/C [26]: 74.5%
viability, T/C [27]: 54.8%
viability, T/C [28]: 42%
viability, T/C [29]: 33%
viability, T/C [30]: 18.6%
viability, T/C [31]: 101%
viability, T/C [32]: 73.7%
viability, T/C [33]: 47.3%
viability, T/C [34]: 36.4%
viability, T/C [35]: 27.9%
viability, T/C [36]: 22.6%

O=c1[nH]cc(F)c(=O)[nH]1 + Nc1ccc(C#CCN(C(=O)Cc2ncc(C(F)(F)F)cc2C(F)(F)F)c2ccc(F)cc2)nn1
IC50 (second compound 0.0316 µM): > 10000 nM
IC50 (second compound 0.1 µM): > 10000 nM
IC50 (second compound 0.316 µM): > 10000 nM
IC50 (second compound 1 µM): > 10000 nM
IC50 (second compound 3.16 µM): > 10000 nM
IC50 (second compound 10 µM): > 10000 nM
viability, T/C [1]: 115%
viability, T/C [2]: 107%
viability, T/C [3]: 142%
viability, T/C [4]: 117%
viability, T/C [5]: 89.9%
viability, T/C [6]: 95.1%
viability, T/C [7]: 107%
viability, T/C [8]: 126%
viability, T/C [9]: 109%
viability, T/C [10]: 91.6%
viability, T/C [11]: 95.1%
viability, T/C [12]: 94.5%
viability, T/C [13]: 118%
viability, T/C [14]: 98%
viability, T/C [15]: 111%
viability, T/C [16]: 99.1%
viability, T/C [17]: 87.5%
viability, T/C [18]: 90.7%
viability, T/C [19]: 106%
viability, T/C [20]: 103%
viability, T/C [21]: 116%
viability, T/C [22]: 108%
viability, T/C [23]: 112%
viability, T/C [24]: 95.1%
viability, T/C [25]: 119%
viability, T/C [26]: 122%
viability, T/C [27]: 121%
viability, T/C [28]: 118%
viability, T/C [29]: 98.8%
viability, T/C [30]: 85.9%
viability, T/C [31]: 123%
viability, T/C [32]: 128%
viability, T/C [33]: 124%
viability, T/C [34]: 134%
viability, T/C [35]: 90%
viability, T/C [36]: 111%
